These results are taken from ChEMBL document CHEMBL1135480, “Design and quantitative structure-activity relationship of 3-amidinobenzyl-1H-indole-2-carboxamides as potent, nonchiral, and selective inhibitors of blood coagulation factor Xa” (J Med Chem, 2002).

The structures appear in SMILES notation.

In assay [1] the target is Prothrombin (Homo sapiens, UniProt P00734). The assay can be described thus: Inhibitory activity against human thrombin.
Assay [2] deals with Coagulation factor X (Homo sapiens, UniProt P00742). The assay can be described thus: Inhibition of Coagulation factor Xa.
Sequence of Coagulation factor X (P00742 41-179 limits assumed): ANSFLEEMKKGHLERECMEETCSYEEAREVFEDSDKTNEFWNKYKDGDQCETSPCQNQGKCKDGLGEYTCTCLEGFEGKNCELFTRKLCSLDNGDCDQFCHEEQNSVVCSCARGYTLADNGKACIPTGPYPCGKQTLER
Sequence of Coagulation factor X (P00742 235-488 limits assumed): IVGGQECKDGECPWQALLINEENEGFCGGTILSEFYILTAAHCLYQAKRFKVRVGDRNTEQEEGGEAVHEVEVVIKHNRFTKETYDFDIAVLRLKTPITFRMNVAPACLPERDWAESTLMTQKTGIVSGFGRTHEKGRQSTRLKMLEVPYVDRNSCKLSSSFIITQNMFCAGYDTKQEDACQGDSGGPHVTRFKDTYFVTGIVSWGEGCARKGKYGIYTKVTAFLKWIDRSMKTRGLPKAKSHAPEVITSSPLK

In the case of `Cc1cccc2c1cc(C(=O)NCc1ccc([N+](C)(C)Cc3ccccc3)cc1)n2Cc1cccc(C(=N)N)c1`, the Ki in assay [1] stood at 3900 nM; in assay [2] it was 23 nM.

Regarding `N=C(N)c1cccc(CNC(=O)c2c(Br)c3ccccc3n2Cc2cccc(C(=N)N)c2)c1`, the inhibitory constant (Ki) stood at 3290 nM in assay [1] and 26 nM in assay [2].

With `C[n+]1ccc(CNC(=O)c2cc3cc(N)ccc3n2Cc2cccc(C(=N)N)c2)cc1`, the Ki in assay [1] is 57000 nM; in assay [2], 100 nM.

Regarding `N=C(N)c1cccc(Cn2c(C(=O)NCc3cc(F)cc(C(F)(F)F)c3)cc3c(O)cccc32)c1`, the figures for the Ki in assay [1] and in assay [2] were 1710 nM and 39 nM, respectively.

In assay [1], `CC(C)(C)OC(=O)Nc1ccc2c(c1)cc(C(=O)NCc1ccc([N+](C)(C)C)cc1)n2Cc1cccc(C(=N)N)c1` yielded a Ki of 28000 nM. That is a double-digit micromolar value.

The compound `C[N+](C)(C)c1ccc(CNC(=O)c2cc3c(O)cccc3n2Cc2cccc(C(=N)N)c2)cc1` yielded a Ki in assay [1] of 9090 nM. This Ki lies about 3.1-fold lower than the previous one.

Compound `N=C(N)c1cccc(CNC(=O)c2c(Cl)c3ccccc3n2Cc2cccc(C(=N)N)c2)c1` showed a Ki in assay [1] of 4240 nM.

Take `C[N+](C)(C)c1ccc(CNC(=O)c2cc3cc(Cl)ccc3n2Cc2cccc(C(=N)N)c2)cc1`: the Ki was determined as 15800 nM in assay [1] and 140 nM in assay [2].

Regarding `N=C(N)c1cccc(Cn2c(C(=O)NCc3ccc(Cl)c(Cl)c3)cc3c(O)cccc32)c1`, in assay [2], the Ki was determined as 841 nM.

In turn, `N=C(N)c1cccc(Cn2c(C(=O)NCc3cc(Cl)cc(Cl)c3)c(Br)c3ccccc32)c1` registered a Ki in assay [2] of 85 nM. This Ki is about 9.9-fold lower than that of the compound before.

On to `Cc1cccc2c1c(Br)c(C(=O)NCc1cccc(C(=N)N)c1)n2Cc1cccc(C(=N)N)c1`, for which the figures for the Ki in assay [1] and in assay [2] were 2070 nM and 50 nM, respectively.

Compound `N=C(N)c1cccc(Cn2c(C(=O)NCc3cccc(I)c3)cc3c(O)cccc32)c1` had a Ki in assay [2] of 42 nM.

On to `C[n+]1cccc(CC(NC(=O)c2cc3ccccc3n2Cc2cccc(C(=N)N)c2)C(N)=O)c1` (centres undefined), for which, in assay [2], the Ki was determined as 3900 nM.

As to `Cc1cc(CNC(=O)c2cc3c(O)cccc3n2Cc2cccc(C(=N)N)c2)cc(C(F)(F)F)c1`, the Ki in assay [1] was 480 nM.

As for `Cc1cc(C)cc(CNC(=O)c2cc3c(C)cccc3n2Cc2cccc(C(=N)N)c2)c1`, in assay [1], the affinity, expressed as Ki, was 1420 nM.

In assay [2], `COC(=O)CN(Cc1cc[n+](C)cc1)C(=O)c1cc2ccccc2n1Cc1cccc(C(=N)N)c1` had a Ki of 170 nM. In other words, the sub-micromolar range.

In assay [2], `C[N+](C)(C)c1ccc(CNC(=O)c2cc3cc(Br)ccc3n2Cc2cccc(C(=N)N)c2)cc1` had a Ki of 134 nM. This Ki and that of the compound before are within 1.5-fold of each other.

In turn, `N=C(N)c1cccc(Cn2c(C(=O)NCc3cccc(C(F)(F)F)c3)cc3c(O)cccc32)c1` came in with a Ki in assay [2] of 476 nM.

Take `N=C(N)c1cccc(Cn2c(C(=O)NCc3cccc(NC(N)=O)c3)cc3c(O)cccc32)c1`: in assay [2], the Ki stood at 180 nM.

As to `Cc1cc(C)cc(CNC(=O)c2c(Br)c3ccccc3n2Cc2cccc(C(=N)N)c2)c1`, the Ki in assay [2] worked out at 13 nM.

The compound `CN(C)c1ccc(CNC(=O)c2cn(Cc3cccc(C(=N)N)c3)c3ccccc23)cc1` registered a Ki in assay [2] of 2190 nM.

The compound `N=C(N)c1cccc(Cn2c(C(=O)NCc3ccnc4ccccc34)cc3c(O)cccc32)c1` returned a Ki in assay [2] of 300 nM.

On to `CN1CCC([C@@H](NC(=O)c2cc3ccccc3n2Cc2cccc(C(=N)N)c2)c2ccc3cc(Cl)ccc3c2)CC1`, for which the Ki in assay [2] came out at 610 nM. This Ki is about 2-fold higher than that of the compound before.

`COc1cccc2c1cc(C(=O)NCCc1cc[n+](C)cc1)n2Cc1cccc(C(=N)N)c1`: the affinity in assay [2] corresponds to a Ki of 160 nM.

Compound `COc1cccc2c1cc(C(=O)NCc1ccc(O)cc1)n2Cc1cccc(C(=N)N)c1` had a Ki in assay [2] of 183 nM.

The compound `N=C(N)c1cccc(Cn2c(C(=O)NCCc3ccc(Cl)c(Cl)c3)cc3c(O)cccc32)c1` had an inhibitory constant (Ki) in assay [2] of 918 nM.

In assay [2], `COC(=O)c1c(C(=O)NCc2cc[n+](C)cc2)n(Cc2cccc(C(=N)N)c2)c2ccccc12` gave a Ki of 350 nM.

For the compound `N=C(N)c1ccc(CNC(=O)c2cc3cc(N)ccc3n2Cc2cccc(C(=N)N)c2)cc1`, the values for the Ki in assay [1] and in assay [2] were 5600 nM and 89 nM, respectively.

With `COc1cccc2c1cc(C(=O)NCc1ccc(-c3cc[n+](C)cc3)cc1)n2Cc1cccc(C(=N)N)c1`, in assay [2], the affinity, expressed as Ki, was 110 nM.

In turn, `CSC(=O)c1cc2c(O)cccc2n1Cc1cccc(C(=N)N)c1` showed a Ki in assay [2] of 2990 nM. Compared with the last compound, the Ki is about 27-fold higher.

`C#CC[N+](C)(C)c1ccc(CNC(=O)c2cc3cc(F)ccc3n2Cc2cccc(C(=N)N)c2)cc1` showed an inhibition constant Ki in assay [2] of 76 nM.

`COC(=O)c1cccc(CNC(=O)c2cc3c(O)cccc3n2Cc2cccc(C(=N)N)c2)c1`: affinity in assay [2] was put at a Ki of 2040 nM.

`C[n+]1ccc(CNC(=O)c2cc3ccccc3n2Cc2cccc(C(=N)N)c2)cc1` displayed a Ki in assay [2] of 150 nM.

`N=C(N)c1cccc(Cn2c(C(=O)NCc3cccc(C(N)=O)c3)cc3ccccc32)c1` came in with a Ki in assay [2] of 240 nM.

Consider `N=C(N)c1cccc(Cn2c(C(=O)NCc3cc(C(F)(F)F)cc(C(F)(F)F)c3)cc3c(O)cccc32)c1`, for which the inhibition constant Ki in assay [1] was found to be 1180 nM; in assay [2] it was 99 nM.

With `N=C(N)c1cccc(COC(=O)c2cc3ccccc3n2Cc2cccc(C(=N)N)c2)c1`, in assay [1], the Ki was 2460 nM.

For the compound `Cc1c(F)ccc2c1cc(C(=O)NCc1ccc([N+](C)(C)Cc3ccccc3)cc1)n2Cc1cccc(C(=N)N)c1`, the Ki in assay [2] turned out to be 245 nM.

Take `N=C(N)c1cccc(Cn2c(C(=O)NCc3nccc4ccccc34)cc3c(O)cccc32)c1`: the Ki came out at 290 nM in assay [1] and 20 nM in assay [2].

`N=C(N)c1cccc(Cn2c(C(=O)NCc3cccc(F)c3)cc3c(O)cccc32)c1`: the affinity in assay [2] corresponds to a Ki of 720 nM.

Consider `Cc1cccc2c1cc(C(=O)NCc1cc(Cl)cc(Cl)c1)n2Cc1cccc(C(=N)N)c1`, for which affinity in assay [1] was put at a Ki of 1610 nM.

On to `COc1cccc(CNC(=O)c2cc3c(O)cccc3n2Cc2cccc(C(=N)N)c2)c1`, for which the affinity in assay [2] corresponds to a Ki of 308 nM.

Regarding `COc1ccc(CNC(=O)c2cc3c(O)cccc3n2Cc2cccc(C(=N)N)c2)cc1`, the Ki in assay [2] amounted to 1360 nM.

For `N=C(N)c1cccc(Cn2c(C(=O)NCc3ccccn3)cc3c(O)cccc32)c1`, in assay [2], affinity was put at a Ki of 3330 nM.

Turning to `N=C(N)c1ccc(CNC(=O)c2cc3c(O)cccc3n2Cc2cccc(C(=N)N)c2)cc1`, affinity in assay [1] was put at a Ki of 4200 nM.

`CC[N+](C)(C)c1ccc(CNC(=O)c2cc3cc(F)ccc3n2Cc2cccc(C(=N)N)c2)cc1`: affinity in assay [2] was put at a Ki of 103 nM.

In assay [2], `Cc1cccc2c1cc(C(=O)NCc1ccc(N(C)C)cc1)n2Cc1cccc(C(=N)N)c1` gave an inhibition constant Ki of 1310 nM.

In assay [2], `C[n+]1ccc(CCNC(=O)c2cc3ccccc3n2Cc2cccc(C(=N)N)c2)cc1` yielded a Ki of 1300 nM. The Ki values of the last two compounds are within 1.5-fold of each other.

As to `N=C(N)c1cccc(Cn2c(C(=O)NCC34C[C@H]5C[C@@H](C3)C[C@@H](C4)C5)cc3c(O)cccc32)c1`, affinity in assay [2] was put at a Ki of 274 nM.

Compound `CN(CCNC(=O)c1cc2c(O)cccc2n1Cc1cccc(C(=N)N)c1)c1cccc2ccccc12` showed a Ki in assay [2] of 2470 nM.

Consider `C[N+](C)(C)c1ccc(CNC(=O)c2cc3cc(N)ccc3n2Cc2cccc(C(=N)N)c2)cc1`, for which the Ki in assay [2] is 60 nM.

On to `N=C(N)c1cccc(Cn2c(C(=O)NCc3ccccc3Cl)cc3c(O)cccc32)c1`, for which, in assay [2], the Ki amounted to 1200 nM.

For the compound `N=C(N)c1cccc(Cn2c(C(=O)NCc3cc(Cl)cc(Cl)c3Cl)cc3c(O)cccc32)c1`, the Ki in assay [1] was determined as 270 nM; in assay [2] it was 99 nM.

On to `Cc1cccc2c1cc(C(=O)NCc1nccc3ccccc13)n2Cc1cccc(C(=N)N)c1`, for which the Ki amounted to 200 nM in assay [1] and 15 nM in assay [2].

Compound `Cc1cccc2c1cc(C(=O)NCc1cccc(C(=N)N)c1)n2Cc1cccc(C(=N)N)c1` came in with a Ki in assay [1] of 2390 nM. This lies in the single-digit micromolar range.

In assay [2], `N=C(N)c1cccc(Cn2c(C(=O)NCc3cccc4ccccc34)cc3c(O)cccc32)c1` registered an inhibition constant (Ki) of 68 nM.

`CCOC(=O)c1cc2c(C)cccc2n1Cc1cccc(C(=N)N)c1` gave an inhibitory constant (Ki) in assay [2] of 948 nM.

In the case of `N=C(N)c1cccc(Cn2c(C(=O)NCC3CCCCC3)cc3c(O)cccc32)c1`, in assay [2], the Ki was found to be 1110 nM.

For the compound `N=C(N)c1cccc(CNC(=O)c2cc3cc(N)ccc3n2Cc2cccc(C(=N)N)c2)c1`, the Ki in assay [2] came out at 51 nM.

As usually defined, the Ki is a measure of affinity in units of concentration, obtained from inhibition or displacement. Lower therefore signals higher affinity.
